The data set can be described thus: Crystallization stability of seeded allulose syrups. It counts as physicochemical. Particulars: 25° C. The protocol: Allulose syrups were prepared at 50, 60, 71, 77, and 85% DS and were equilibrated at 25° C., 15° C. and 4° C. These samples were seeded with ˜0.1% crystalline allulose and crystallization was monitored visually and by change in dry solids of the syrup fraction after 1 month of storage.
A change in DS greater than 0 indicates crystallization, and a larger number indicates a larger amount of crystallization. […] Therefore, for storage of a crystallization stable syrup at ambient and reduced temperatures, 77% solids or less is desirable. For cool (<25° C.) temperatures, 71% solids or less is more desirable.

With `O=C(CO)C(O)C(O)C(O)CO` (stereo not shown) [allulose], the “limit of solubility (DS)” value is reported as approximately 77%.

For the origin of these results see patent publication US12550923B2, “Allulose syrups” (Tate & Lyle Solutions USA LLC, priority 2015, dated 2026).
